The text below walks through data of EPA's ToxValDB 9.5 (doi:10.2903/j.efsa.2006.82r).

One data set concerns Anas platyrhynchos. Conditions: for LD50: oral, mortality.
The next data set relates to Trichogramma cacoeciae. Conditions: not reported; mortality.
The next data set relates to Canidae. Conditions: oral, Dog Other, organ weight.
In the next data set the test system is Bird. Conditions: acute; oral; unspecified; mortality.
A further data set deals with Colinus virginianus. As to conditions: for LD50: acute, oral, mortality.
A further data set relates to Apis mellifera. Conditions: acute; duration: 48 hours; oral; unspecified; mortality.

Molecules are shown by their SMILES. ≈ marks a conversion by molar mass, not a printed value.

`COc1ccc(C(=CC(=O)N2CCOCC2)c2ccc(Cl)cc2)cc1OC` [Dimethomorph]: the LC50 was greater than 1000 mg/kg in the data set on Tagia sp. (acute, duration: 14 days, mortality) and 3.4 µg/mL (≈ 8.77 µM) with Oncorhynchus mykiss (acute, duration: 96 hours, mortality). Besides, the NOEC was no less than 120 mg/kg with Tagia sp. (chronic/long-term, duration: 8 weeks, reproduction) and 0.056 mg/L in the data set on Oncorhynchus mykiss (chronic/long-term, duration: 96 days, development). The LD50 with Anas platyrhynchos (acute, unspecified) is greater than 2000 mg/kg; in the data set with Anas platyrhynchos (short-term, feed), greater than 938 mg/kg-day; in the data set with Bird, 3900 mg/kg; in the data set on Colinus virginianus (diet) it was greater than 728 mg/kg-day; in the data set with Colinus virginianus, greater than 2000 mg/kg; in the data set with Apis mellifera it was greater than 32.4 µg/piece. The NOEL in the data set with Anas platyrhynchos (reproductive) was 78.4 mg/kg-day; in the data set with Colinus virginianus (reproduction developmental) it was 58.4 mg/kg-day. Moreover, the LEL with Trichogramma cacoeciae was determined as 115 g/ha. Also, the NOAEL (as a rule, the highest tested level that showed no adverse finding) with Canidae (chronic, duration: 1 years, M/F) was found to be 4.9 mg/kg-day; in the data set with Canidae (subchronic, duration: 90 days), 15 mg/kg-day; with Rattus norvegicus (developmental, development), 60 mg/kg-day; in the data set on Rattus norvegicus (subchronic, duration: 90 days, oral) it was 16 mg/kg-day.
